Paper PMC8304783, “Antiadhesive Properties of Imidazolium Ionic Liquids Based on (−)-Menthol Against Candida spp” (International Journal of Molecular Sciences, 2021)
Where two headings read alike, the source gives them in different places.

What was measured:
Format in all cases: cell-based
C. albicans Gu5 = test: MIC90 and MFC towards clinical isolates; conditions: Candida albicans
Experimental: (§1) Experiments were performed according to the Clinical and Laboratory Standards Institute (2008), 3rd ed. M27-A3 [51], with modifications described previously. Briefly, MICs were determined by serially diluting ILs in YPD medium in sterile 96-well plates (Sarstedt) and inoculating with fungal suspensions (final OD600 per well = 0.01). After incubation (48 h; 28 °C), the OD600 was measured (ASYS UVM 340 Biogenet). […] Each well was then replated on YPD agar and incubated for 5 days at 28 °C.
(§2) The effect of imidazolium ILs based on of (1R,2S,5R)‐(−)‐menthol was evaluated on clinical, fluconazole(FLC)‐resistant and FLC‐sensitive C. albicans isolates. C. albicans Gu4 and Gu5 strains were isolated from a patient before and after fluconazole administration, respectively.
(§3) Azole‐resistance of Gu5 origins in overexpression of CDR1 and CD R2. C. albicans B3 and B4 strains […]
(§4) Azole‐resistance of B4 results from overexpression of MDR1. The strains were generous gifts from Prof. S. Milewski (Gdańsk, Poland) and Prof. J. Morschhäuser (Wurzburg, Germany). They are originally referenced in: Franz, R., Ruhnke, M. & Morschhäuser, J. Molecular aspects of fluconazole resistance development in Candida albicans. Mycoses 42, 453–458, (1999).
(§5) Table S1 summarizes the minimal inhibitory and fungicidal concentration (MIC90 and MFC, respectively) values of ILs tested against the C. albicans isolates (for ILs structures see section 5.2. in the mai n text). No difference in case of MIC90 values between the strains was observed. However, MFC values were two‐fold lower for the compounds 1b and 2a in case of B3 and B4 isolates. The MFC value of the compound 1a wa s two‐fold higher on ly in ca se of Gu5 strain.
(§6) Table S1. Minimal inhibitory concentrations (MIC90; μM) and minimal fungicidal concentrations (MFC; μM) of ionic liquids (ILs ) or fluconazole (FLC) towards clinical C. albicans isolates.

C. albicans B4 = test: MIC90 and MFC towards clinical isolates; conditions: Candida albicans
Experimental: as §1, §2, §3, §4, §5, §6

C. albicans Gu4 = test: MIC90 and MFC towards clinical isolates; conditions: Candida albicans, clinical isolate Gu4 (FLC-sensitive); for MFC: read-out: Minimal fungicidal concentration (MFC); for MIC90: read-out: Minimal inhibitory concentration (MIC90)
Experimental: as §1, §2, §3, §4, §5, §6

C. albicans B3 = test: MIC90 and MFC towards clinical isolates; conditions: Candida albicans, clinical isolate B3 (FLC-sensitive); for MFC: read-out: Minimal fungicidal concentration (MFC); for MIC90: read-out: Minimal inhibitory concentration (MIC90)
Experimental: as §1, §2, §3, §4, §5, §6

C. albicans = test: Calcofluor white staining (cell wall integrity); conditions: ILs 25 µM, 2 h, 37 °C
Experimental: Fungal adhesion to biomedical surfaces is strongly related to the structure of the cell wall, and the presence of adhesins (Als proteins) on the surface of the cell. In turn, the progression to biofilm formation is dependent on the ability of C. albicans to form hyphae. In conditions similar to those above (ILs conc. = 25 µM), we examined C. albicans cell wall integrity, its ability to form hyphae, and the level of ALS genes expression, encoding Als1 and Als5 adhesins (Figure 3). […] Despite some reduction, the result was not statistically significant (p = 0.12). On the other hand, after the treatment with IL 2a, the expression of ALS1 and ALS5 genes was reduced by 50 or 55%, respectively (Figure 3C). The results were statistically significant in both cases (p = 0.04 for either ALS gene). However, in case of compounds with alkyl substituents (1a and 1b), the reduction of gene expression was to a lesser degree. […] Despite observing a chain-length dependence, the results were not statistically significant (p = 0.07 for both ALS gene after treatment with 1b).
Calcofluor white was used to assess cell wall integrity in C. albicans, following our protocol. YPD-grown C. albicans cells were pelleted, washed with PBS and treated with ILs (conc. = 25 µM) for 2 h at 37 °C. Afterwards, the samples were washed with PBS, stained with calcofluor white (final conc. = 25 µM) for 5 min. Then, cell suspensions were washed with PBS, pelleted and observed under the Zeiss (Poznań, Poland) Axio Imager A2 microscope equipped with Zeiss Axiocam 503 mono microscope camera and the Zeiss HBO100 mercury lamp.

[1] = system: C. albicans B4 and Gu5 isolates; test: Biofilm of clinical isolates on acrylic dental crowns (crystal violet); conditions: B4 and Gu5 (FLC-resistant); 72 h biofilm, then ILs 25 μM for 2 h
Experimental: To assess the influence of ILs on biofilm formation by C. albicans strain SC5314 on dentures, the following materials were used: acrylic dental crowns, porcelain-fused-to-metal (PFMs) dental crowns and dental alloy substructures. All dentures were kind gifts from Prof. M. Łukaszewicz (Wrocław, Poland). Prior to the experiments, the dentures were sterilized by 1 h incubation in 70% pure ethanol (EtOH) solution, washed with sterile water to remove EtOH residues and dried under aseptic conditions. The experiments were performed by aseptically placing dentures in YPD, supplemented with FBS, and inoculating them with YPD-grown C. albicans suspension (0.01% Vol/Vol). After 72 h of incubation at 37 °C, the dentures were treated for 2 h with the addition of ILs (conc. = 25 µM), washed with PBS and fixed with 0.1% CV solution for 10 min, then washed with PBS to remove the stain residue. The dentures were then dried and photographed. Microscopic preparations were made of biofilm samples which were imaged using the Zeiss Axio Imager A2 microscope equipped with Zeiss Axiocam 503 mono microscope camera.
Figure S1. Detachment of adherent C. albicans clinical isolates after 2 h incubation on polystyrene surfaces by ionic liquids (ILs) (means ± SD; n = 3). Results are presented as percentage of adherent cells relative to untreated controls (100% adhesion). Statistical analysis of detachment at each concentration was performed towards corresponding control experiments (isolates untreated by ILs=100% adhesion) (*, p < 0.05; **, p < 0.01 […]
We selected C. albicans B4 and Gu5 isolates for evaluating the ability of ILs to eradicate biofilm formation on acrylic dental crowns (Figure S2). Both the strains were chosen due to their FLC‐resistance status. An IL concentration of 25 μM was selected for this investigation. In each condition, a C. albicans biofilm was formed after 72 h incubation, and the collected biomass was microscopically evaluated for the presence of hyphae, pseudohyphae and blastoconidia characteristic of C. albicans (Figure S2). […]

[2] = GU5, read-out: Minimal fungicidal concentration (MFC)
[3] = GU5, read-out: Minimal inhibitory concentration (MIC90)
[4] = B4, read-out: Minimal fungicidal concentration (MFC)
[5] = B4, read-out: Minimal inhibitory concentration (MIC90)

Structure (SMILES) | MFC (C. albicans Gu5; clinical isolate Gu5 (FLC-resistant, CDR1/CDR2 overexpression), read-out: Minimal fungicidal concentration (MFC)) | MIC90 (C. albicans Gu5; clinical isolate Gu5 (FLC-resistant, CDR1/CDR2 overexpression), read-out: Minimal inhibitory concentration (MIC90)) | MFC (C. albicans B4; clinical isolate B4 (FLC-resistant, MDR1 overexpression), read-out: Minimal fungicidal concentration (MFC)) | MIC90 (C. albicans B4; clinical isolate B4 (FLC-resistant, MDR1 overexpression), read-out: Minimal inhibitory concentration (MIC90)) | MFC (C. albicans Gu4) | MIC90 (C. albicans Gu4) | MFC (C. albicans B3) | MIC90 (C. albicans B3) | Calcofluor white staining of chitin (cell wall integrity) (C. albicans) | Biofilm of clinical isolates on acrylic dental crowns (CV staining) [1] | MFC (C. albicans Gu5; [2]) | MIC90 (C. albicans Gu5; [3]) | MFC (C. albicans B4; [4]) | MIC90 (C. albicans B4; [5])
CCCCCCCCCn1cc[n+](CO[C@@H]2C[C@H](C)CC[C@H]2C(C)C)c1 [1a, 1-[(1R,2S,5R)-(−)-menthoxymethyl]-3-nonylimidazolium chloride] | 50 µM | 12.5 µM | 25 µM | 12.5 µM | 25 µM | 12.5 µM | 25 µM | 12.5 µM | well-defined, intense chitin fluoresce with clearly visible bud scars, comparable with the control staining | residual CV staining |  |  |  | 
CCCCCCCCCCn1cc[n+](CO[C@@H]2C[C@H](C)CC[C@H]2C(C)C)c1 [1b, 3-decyl-1-[(1R,2S,5R)-(−)-menthoxymethyl]imidazolium chloride] |  |  |  |  | 50 µM | 25 µM | 25 µM | 25 µM | well-defined, intense chitin fluoresce with clearly visible bud scars, comparable with the control staining | residual CV staining | 50 µM | 25 µM | 25 µM | 25 µM
CCCCCCCCCOCn1cc[n+](CO[C@@H]2C[C@H](C)CC[C@H]2C(C)C)c1 [2a, 1-(1R,2S,5R)-(−)-menthoxymethyl-3-nonyloxymethylimidazolium chloride] |  |  |  |  | 25 µM | 12.5 µM | 12.5 µM | 12.5 µM | low fluorescence intensity and thinner calcofluor white-stained chitin layer surrounding cells than the controls | prote ct ed | 25 µM | 12.5 µM | 12.5 µM | 12.5 µM
